# Test results from publication PMC4482062 (Nucleic Acids Research, 2015).
# Values joined by “and” are separate entries in the source; they are usually repeats but may differ in a detail not shown here. Identical values can stand only once.
# Legend:
# [1] = design: method as in PMID 10858319; details: in water; cited from earlier work
# CmoB Y200A mutant = target: T1, CmoB Y200A mutant (Escherichia coli, UniProt P76291, Y200A); experiment: Isothermal titration calorimetry, Y200A mutant CmoB; format: binding
# T1 construct: vector LIC-pET30a) (cleaved yes); made in house; host or cells: Escherichia coli BL21 (DE3)
# T1 sequence (P76291 whole entry Y200A): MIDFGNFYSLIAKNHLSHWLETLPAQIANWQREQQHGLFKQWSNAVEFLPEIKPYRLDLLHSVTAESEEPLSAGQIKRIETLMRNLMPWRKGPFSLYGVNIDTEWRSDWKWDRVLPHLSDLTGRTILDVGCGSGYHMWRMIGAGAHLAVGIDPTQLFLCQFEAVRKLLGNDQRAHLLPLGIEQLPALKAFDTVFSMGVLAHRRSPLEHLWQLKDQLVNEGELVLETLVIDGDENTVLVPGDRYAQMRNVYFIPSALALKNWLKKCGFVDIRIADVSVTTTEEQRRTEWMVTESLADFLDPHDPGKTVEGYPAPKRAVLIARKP
# Experimental: (§1) CmoB was extensively dialyzed for 24 h against binding buffer (20-mM HEPES, pH 7.5) using a dialysis cassette with 10-kDa MWCO (Pierce). Lyophilized Cx-SAM was dissolved in the binding buffer at a final concentration of 1.3 mM. SAM was purchased from Sigma and dissolved in binding buffer at a final concentration of 10 mM. Prior to use, all titration samples were centrifuged for 20 min at 4°C. Isothermal titration calorimetry (ITC) experiments were performed at 15°C using an auto-ITC200 (MicroCal, LLC, Northhampton, MA, USA) in which the reaction cell (202.8 μl) containing CmoB (50 μM and 370 μM for Cx-SAM and SAM, respectively) was titrated with 40 × 1-μl injections of 1.3-mM Cx-SAM or 6.7-mM SAM with an equilibration time of 180 s. Raw injection traces were integrated over time, normalized per mol of ligand injected and corrected for the heat of dilution obtained from the plateau of a titration curve. Titration data were analyzed using a single-site model in Origin (version X) and Igor Pro 5/6. […] Based on the chemical synthesis, the Cx-SAM utilized in the binding assay is a racemic mixture, of which only the S-isomer is capable of acting as a substrate/ligand for CmoB. Therefore, the stoichiometry was fixed at 1:1 and the activity of the ligand was introduced as a fitting parameter for Cx-SAM.
# wild-type CmoB [2] = target: T2, wild-type CmoB (Escherichia coli, UniProt P76291); experiment: Isothermal titration calorimetry, wild-type CmoB; format: binding
# T2 construct: vector LIC-pET30a) (cleaved yes); made in house; host or cells: Escherichia coli BL21 (DE3)
# T2 sequence (P76291 whole entry): as the sequence (P76291 whole entry Y200A) above, with A200Y counted along it
# Experimental: as §1
# CmoB K91A mutant [3] = target: T3, CmoB K91A mutant (Escherichia coli, UniProt P76291, K91A); experiment: In vitro LC-MS-based alkyl transfer assay, K91A CmoB; format: biochemical; details: Cx-SAM as alkyl donor, after 24 h
# T3 construct: vector LIC-pET30a) (cleaved yes); made in house; host or cells: Escherichia coli BL21 (DE3)
# T3 sequence (P76291 whole entry K91A): as the sequence (P76291 whole entry Y200A) above, with K91A, A200Y counted along it
# Experimental: (§2) The assay solution for SAM-dependent mo5U formation contained 10-mM Tris-HCl (pH 8.0), 4-mM MgCl2, 0.2-mM SAM and 20–25 μg (∼20 μM) of total tRNA prepared from cmoB-mutant E. coli cells in 50 μl. Reaction conditions for Cx-SAM-dependent cmo5U formation assay were identical, with the exception that10-μM Cx-SAM was used in place of SAM. Assays were initiated by addition of 0.1–2-μM CmoB to the above mixtures and subsequently incubated at the room temperature. The reaction was terminated by the addition of 0.1-mg/ml P1 nuclease, followed by incubation at 60°C for at least 1 h. […] Hydrolyzed nucleotides were directly applied to HPLC without further processing for LC-MS analysis as described above.
# CmoB R315A mutant = target: T4, CmoB R315A mutant (Escherichia coli, UniProt P76291, R315A); experiment: Isothermal titration calorimetry, R315A mutant CmoB; format: binding
# T4 construct: vector LIC-pET30a) (cleaved yes); made in house; host or cells: Escherichia coli BL21 (DE3)
# T4 sequence (P76291 whole entry R315A): as the sequence (P76291 whole entry Y200A) above, with A200Y, R315A counted along it
# Experimental: as §1
# wild-type CmoB [4] = target: T2, wild-type CmoB; experiment: In vitro LC-MS-based alkyl transfer assay, wild-type CmoB; format: biochemical
# Experimental: as §2
# CmoB = target: T5, CmoB (Escherichia coli, UniProt P76291); experiment: Time course of SAM-dependent mo5U modification ([14CH3]-SAM), competition with Cx-SAM; format: biochemical; details: 10-μM Cx-SAM, 140 μM [14CH3]-SAM, 90 min
# T5 construct: vector LIC-pET30a) (cleaved yes); made in house; host or cells: Escherichia coli BL21 (DE3)
# T5 sequence (P76291 whole entry): as the sequence (P76291 whole entry Y200A) above, with A200Y counted along it
# Experimental: The assay was initiated by mixing 10-mM Tris (pH 8.0), 4-mM MgCl2, 140-μM [^14CH3]-SAM (Perkin Elmer), 100 μg of total tRNA prepared from cmoB-deficient cells and 2-μM CmoB in 50 μl. In competition assays to measure the effect of Cx-SAM on methylation, 10-μM Cx-SAM was added to the above mixture. […] RNA was washed with 0.2-M ammonium acetate (pH 6.0) using an MWCO 10-kDa filter by centrifugation. This washing step was repeated two more times to remove unreacted ^14C-SAM. RNA was then spotted on a DE81 filter (GE) and air-dried for 20 min. Images of the radioactive tRNA were recorded on a phosphorimaging plate (Molecular Dynamics) for 2 days and analyzed using a Molecular Dynamics Storm 860 PhosphorImager System with ImageQuant software.
# CmoB K91A mutant [5] = target: T3, CmoB K91A mutant; experiment: Isothermal titration calorimetry, K91A mutant CmoB; format: binding
# Experimental: as §1
# The titration curve was analyzed using macroscopic binding constants and enthalpies describing binding of n-molecules of Cx-SAM to tetrameric mutant CmoB. Initially, the titration curve was analyzed with all possible values of n (=1~4). […] Therefore, the titration curve was analyzed using three sets of binding constants and enthalpies (Supplementary Table 2). The fitted values of the macroscopic binding constants were compared to those expected for a case of non-cooperative binding. For both cooperative and non-cooperative binding, K1 is given by 4Ksite where 4 accounts for the number of ligand binding sites in teterameric CmoB (i.e., statistical factor) and Ksite describes the “intrinsic” affinity of each site. Then, Ksite=3.6x10^4 M^-1. The fitted value of K2 is ~ 8.4-fold higher than that calculated for the case of non-cooperative binding (6Ksite^2=7.7x10^9 M^-2), indicating positive cooperativity involved in binding of the second Cx-SAM. Since the population of K91A with three Cx-SAMs bound is negligible, binding of the third Cx-SAM is deduced to be negatively cooperative.
# A possible molecular explanation for such heterogeneous cooperativity involved in the interaction between K91A and Cx-SAM is the presence of (at least) two different types of interface between the subunits in tetrameric K91A which is consistent with the structural model of the CmoB tetramer. In this model (Supplementary Figure 9), the four ligand binding sites are initially equivalent, but binding of the first ligand to any of these four sites differentially affects (increases and decreases) the affinities of the neighboring sites for the second ligand through the different subunit interfaces. This model is a variation of the classical “square” model used in the analysis of the interaction between hemoglobin and oxygen(2) and provides a molecular description of the fitted macroscopic binding constants in terms of the intrinsic affinity (Ksite) and two types of cooperativity (ω+ and ω-): K1=4Ksite; K2=2Ksite^2(1+ω++ω-); K4=Ksite^4(ω+ω-)^2. Then, Ksite=3.6x10^4 M^-1, ω+=23.8, and ω-=0.4. The value of ω is equivalent to a fold-change in the Cx-SAM affinity of a binding site in tetrameric K91A when its neighboring site is already occupied by Cx-SAM.
# ^aIn this model, the interaction is described by a set of binding events where n-molecules of Cx-SAM bind tetrameric CmoB (K91A) with the corresponding binding constants (Kn) and enthalpies (∆Hn°). Initially, the titration curve was analyzed by this model including all possible values of n (=1~4). […] Therefore, the titration curve was analyzed using three sets of binding constants and enthalpies.
smiles,measurement,setting,value
O=c1[nH]c(=O)n([C@H]2C[C@H](O)[C@@H](CO)O2)cc1O [5-hydroxy-2′-deoxyuridine],pKa of the hydroxyl group on the pyrimidine ring,[1],7.68
"Nc1ncnc2c1ncn2[C@@H]1O[C@H](C[S+](CC[C@H](N)C(=O)[O-])CC(=O)O)[C@@H](O)[C@H]1O (stereo partly drawn) [Cx-SAM, carboxy-S-adenosine-L-methionine]",Kd,CmoB Y200A mutant,1.8 ± 0.3 µM
same,K (binding constant),"CmoB Y200A mutant; ITC, 15°C, single-site model, Y200A",5.5 ± 0.8 × 10^5 M^−1 and 5.5 ± 0.8 x 10^5 M^−1
same,ΔH°,"CmoB Y200A mutant; ITC, Y200A",-7.3 ± 0.1 kcal/mol
same,Specificity ratio K(Cx-SAM)/K(SAM),CmoB Y200A mutant; Y200A,> 65
same,Reduction of Cx-SAM binding affinity compared to the wild type,CmoB Y200A mutant; Y200A vs wild type,4–5 fold
same,ΔG°,"CmoB Y200A mutant; ΔG° = −RT lnK, Y200A",-7.6 ± 0.1 kcal/mol
same,ΔS°,"CmoB Y200A mutant; ΔS° = (ΔH°−ΔG°)/T, Y200A",0.8 ± 0.5 cal/mol/deg
same,ΔH°,wild-type CmoB [2]; ITC,-7.9 ± 0.1 kcal/mol
same,Kd,"wild-type CmoB [2]; ITC, 15°C, read-out: Kd",0.4 ± 0.03 µM
same,K (binding constant),"wild-type CmoB [2]; ITC, 15°C, single-site model",2.5 ± 0.2 × 10^6 M^−1 and 2.5 ± 0.2 x 10^6 M^−1
same,TΔS°,"wild-type CmoB [2]; ITC, text",0.55 ± 0.06 kcal/mol
same,ΔG°,"wild-type CmoB [2]; ITC, text",-8.44 ± 0.03 kcal/mol
same,ΔH°,"wild-type CmoB [2]; ITC, text",-7.88 ± 0.05 kcal/mol
same,ΔS°,"wild-type CmoB [2]; ITC, text",1.92 ± 0.21 cal·mol^−1·deg^−1
same,ΔG°,wild-type CmoB [2]; ΔG° = −RT lnK,-8.4 ± 0.1 kcal/mol
same,ΔS°,wild-type CmoB [2]; ΔS° = (ΔH°−ΔG°)/T,1.9 ± 0.2 cal/mol/deg
same,cmo5U formation,CmoB K91A mutant [3],No significant cmo5U signal was detected
same,Kd,CmoB R315A mutant,2.1 ± 0.2 µM
same,K (binding constant),"CmoB R315A mutant; ITC, 15°C, single-site model, R315A",4.7 ± 0.3 × 10^5 M^−1 and 4.7 ± 0.3 x 10^5 M^−1
same,ΔH°,"CmoB R315A mutant; ITC, R315A",-8.5 ± 0.1 kcal/mol
same,Reduction of Cx-SAM binding affinity compared to the wild type,CmoB R315A mutant; R315A vs wild type,4–5 fold
same,ΔG°,"CmoB R315A mutant; ΔG° = −RT lnK, R315A",-7.5 ± 0.1 kcal/mol
same,ΔS°,"CmoB R315A mutant; ΔS° = (ΔH°−ΔG°)/T, R315A",−3.5 ± 0.3 cal/mol/deg
same,Time to detectable cmo5U formation,"wild-type CmoB [4]; 0.1-μM wild-type CmoB, 10-μM Cx-SAM, tRNA from cmoB-defective cells",9 min
same,Time to detected cmo5U with both donors present,wild-type CmoB [4]; 10-μM Cx-SAM and 2-mM SAM,20 min
same,Effect on [14CH3]-SAM methylation of tRNA (radioactive signal),CmoB,no detectable radioactive signal
same,K (binding constant),"CmoB K91A mutant [5]; ITC, 15°C, single-site model, K91A",9.0 ± 1.8 × 10^3 M^−1 and 9.0 ± 1.8 x 10^3 M^−1
same,ΔH°,"CmoB K91A mutant [5]; ITC, K91A",-16.5 ± 1.6 kcal/mol
same,Kd,"CmoB K91A mutant [5]; K1 (macroscopic binding constant), tetrameric K91A, 1 ligand bound",7.14 µM
same,Ksite (intrinsic affinity of each site),"CmoB K91A mutant [5]; K1=4Ksite, tetrameric K91A",36000 M⁻¹
same,Kd,"CmoB K91A mutant [5]; Kd, ITC, 15°C, K91A",111 µM and 110 µM
same,ω+ (positive cooperativity factor),"CmoB K91A mutant [5]; square model, tetrameric K91A",23.8
same,ω- (negative cooperativity factor),"CmoB K91A mutant [5]; square model, tetrameric K91A",0.4
same,K2 (macroscopic binding constant),"CmoB K91A mutant [5]; tetrameric K91A, 2 ligands bound",6.5 (± 1.4) x 10^10 M^-2
same,K4 (macroscopic binding constant),"CmoB K91A mutant [5]; tetrameric K91A, 4 ligands bound",1.6 (± 0.5) x 10^20 M^-4
same,Fitted K2 relative to non-cooperative binding,CmoB K91A mutant [5]; vs 6Ksite^2,~ 8.4 fold
same,Fitted K4 relative to non-cooperative binding,CmoB K91A mutant [5]; vs Ksite^4,~ 98.5 fold
same,ΔG°,"CmoB K91A mutant [5]; ΔG° = −RT lnK, K91A",-5.2 ± 0.1 kcal/mol
same,ΔS°,"CmoB K91A mutant [5]; ΔS° = (ΔH°−ΔG°)/T, K91A",−39.3 ± 5.4 cal/mol/deg
